The Ki is the dissociation constant of the complex between target and ligand, obtained from inhibition or displacement. The EC50 is the concentration at which the effect is half-maximal. A low value points to a more potent agent.

This is an account of results in patent US8575364B2, “Modulators of serotonin receptor” (Janssen Pharmaceutica NV, priority 2008, dated 2013).

The target of one assay is rat 5-HT7 receptors (Rattus norvegicus (Rat), UniProt P32305). In words: r5-HT7 competitive radioligand binding assay ([3H]5-CT). As to conditions: membrane fractions of HEK-293 cells recombinantly expressing rat 5-HT7. How it is done: Compound affinity for the rat 5-HT7 receptor subtype was evaluated by competitive radioligand binding assays using 5-carboxamido[^3H]tryptamine ([^3H]5-CT) (Amersham Biosciences, cat. 90000403) detection. HitHunter™ cAMP assays are in-vitro based competitive immunoassays. […] Cells were pre-incubated with test compounds for 10 minutes. For agonistic testing, the concentration of test compound that produced a half-maximal response is represented by the EC50 value. Compounds were assayed in their free form or as salts, as indicated in the Examples section above.

For a further assay, the target named is r5-HT7 receptor (Rattus norvegicus (Rat), UniProt P32305). In words: HitHunter cAMP assay, agonistic testing. The class given is cell-based. Particulars: HEK-293 cells stably transfected with r5-HT7 receptor. How it is done: Receptor binding was performed using membrane fractions prepared from the HEK-293 cell line recombinantly expressing rat 5-HT7 receptors (NCBI accession NM_022938). Compound affinity for the rat 5-HT7 receptor subtype was evaluated by competitive radioligand binding assays using 5-carboxamido[^3H]tryptamine ([^3H]5-CT) (Amersham Biosciences, cat. 90000403) detection. HitHunter™ cAMP assays are in-vitro based competitive immunoassays. The assay was performed on the HEK-293 cell line stably transfected with r5-HT7 receptor. Cells were pre-incubated with test compounds for 10 minutes. For agonistic testing, the concentration of test compound that produced a half-maximal response is represented by the EC50 value. Compounds were assayed in their free form or as salts, as indicated in the Examples section above.

Where a name gives a salt, the structure may show the parent alone.

Sequence of rat 5-HT7 receptors (P32305 1-435): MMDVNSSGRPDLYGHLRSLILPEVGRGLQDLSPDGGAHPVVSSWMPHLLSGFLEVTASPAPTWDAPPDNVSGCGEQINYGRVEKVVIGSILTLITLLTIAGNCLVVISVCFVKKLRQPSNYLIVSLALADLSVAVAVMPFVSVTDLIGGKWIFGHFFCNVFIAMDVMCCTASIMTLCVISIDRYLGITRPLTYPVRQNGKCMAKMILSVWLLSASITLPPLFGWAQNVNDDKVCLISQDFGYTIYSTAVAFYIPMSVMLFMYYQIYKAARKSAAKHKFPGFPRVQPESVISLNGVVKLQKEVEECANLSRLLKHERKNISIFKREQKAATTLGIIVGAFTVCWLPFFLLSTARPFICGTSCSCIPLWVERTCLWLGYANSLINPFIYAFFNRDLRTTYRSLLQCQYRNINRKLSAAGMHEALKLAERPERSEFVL
Sequence of r5-HT7 receptor (P32305 1-435): as above

For `COc1ccc(-c2ccccc2C(F)(F)F)cc1OC1CNC1` [Example 1, 3-(4-Methoxy-2′-trifluoromethyl-biphenyl-3-yloxy)-azetidine], the Ki at rat 5-HT7 receptors is 0.00379 µM. This compound had an EC50 at r5-HT7 receptor of 0.2 µM.

Regarding `COc1ccc(-c2cccc(C)c2C)cc1OC1CNC1` [Example 4, 3-(4-Methoxy-2′,3′-dimethyl-biphenyl-3-yloxy)-azetidine], the Ki at rat 5-HT7 receptors was found to be 0.011 µM. The compound further had an EC50 on r5-HT7 receptor of 0.631 µM.

For `COc1ccc(-c2cccc(F)c2C)cc1OC1CNC1` [Example 5, 3-(3′-Fluoro-4-methoxy-2′-methyl-biphenyl-3-yloxy)-azetidine], the Ki at rat 5-HT7 receptors amounted to 0.019 µM. At r5-HT7 receptor, this compound showed an EC50 of 1.58 µM.

Regarding `COc1ccc(-c2ccccc2C)cc1OC1CNC1` [Example 8, 3-(4-Methoxy-2′-methyl-biphenyl-3-yloxy)-azetidine trifluoroacetate], on rat 5-HT7 receptors, the inhibitory constant (Ki) worked out at 0.0135 µM. The midpoint of the response at r5-HT7 receptor, the EC50, lay at 0.794 µM.

For the compound `COc1ccc(-c2ccccc2Cl)cc1OC1CNC1` [Example 17, 3-(2′-Chloro-4-methoxy-biphenyl-3-yloxy)-azetidine], the Ki on rat 5-HT7 receptors was found to be 0.00442 µM. At r5-HT7 receptor, the EC50 is 0.794 µM.

Take `Cc1ccccc1-c1ccc(OC(C)C)c(OC2CNC2)c1` [Example 36, 3-(4-Isopropoxy-2′-methyl-biphenyl-3-yloxy)-azetidine]: on rat 5-HT7 receptors, the Ki was 10 µM.

As to `CCN(CC)C(=O)c1ccc(-c2ccccc2C(F)(F)F)cc1OC1CNC1` [Example 37, 3-(Azetidin-3-yloxy)-2′-trifluoromethyl-biphenyl-4-carboxylic acid diethylamide], the Ki on rat 5-HT7 receptors turned out to be 2.27 µM.

For `Cc1cccc(-c2ccc(Cl)cc2OC2CNC2)c1` [Example 38, 3-(4-Chloro-3′-methyl-biphenyl-2-yloxy)-azetidine], on rat 5-HT7 receptors, the Ki stood at 0.189 µM.

For the compound `Cc1cc(-c2ccc(Cl)cc2OC2CNC2)ccc1F` [Example 41, 3-(4-Chloro-4′-fluoro-3′-methyl-biphenyl-2-yloxy)-azetidine], on rat 5-HT7 receptors, the Ki is 0.47 µM.

As for `Cc1ccc(-c2ccc(Cl)cc2OC2CNC2)cc1C` [Example 42, 3-(4-Chloro-3′,4′-dimethyl-biphenyl-2-yloxy)-azetidine], the Ki at rat 5-HT7 receptors turned out to be 0.21 µM.

For the compound `Clc1ccc(-c2ccccc2C2CCNC2)cc1` (stereo not drawn) [Example 56, 3-(4′-Chloro-biphenyl-2-yl)-pyrrolidine], at rat 5-HT7 receptors, the Ki turned out to be 0.18 µM.

For `COc1ccc(-c2ccccc2)cc1OC1CCNCC1` [Example 68, 4-(4-Methoxy-biphenyl-3-yloxy)-piperidine], the Ki at rat 5-HT7 receptors is 1.48 µM.

Consider `COc1ccc(-c2ccccc2C(F)(F)F)cc1OC1CCNCC1` [Example 69, 4-(4-Methoxy-2′-trifluoromethyl-biphenyl-3-yloxy)-piperidine], for which, on rat 5-HT7 receptors, the Ki came out at 0.059 µM.
